The results in this text go back to patent publication US20060025434A1, “Therapeutic agents for drug/substance dependence” (Toray Industries, Inc., priority 2003, published 2006).

The structures appear in SMILES notation.

The test system of the assay is SD male rats. Briefly: Conditioned place preference (CPP) test: recovery after acquisition of methamphetamine-induced psychological dependence. Format: in vivo. The settings on record: 0.3 mg/kg subcutaneous twice per day, after methamphetamine (2.0 mg/kg s.c.) conditioning. The text has this: Effect of Compound 1 in Promoting the Recovery Process after Acquisition of Psychological Dependence by a Stimulant Drug (Therapeutic Effect for Stimulant Drug Dependence)
The effect of compound 1 in promoting recovery during the convalescence after the acquisition of psychological dependence by a stimulant drug was discussed using the conditioned place preference method (Suzuki, T., et al., Psychopharmacology, 102, 438, 1990; Spyraki, C., The Psychopharmacology of Addiction, p. 96, Oxford Medical Publication, New York, 1988; hereinafter called “CPP method”). As a stimulant drug forming psychological dependence, methamphetamine hydrochloride was used. Furthermore, as a therapeutic agent for drug dependence, compound 1 was used.
For the experiment, SD male rats were used. The experimental apparatus used was a CPP apparatus having two compartments (one black, the other white). In the experiment, at first, the rats were trained for being conditioned with the sensory effect of the drug and the environments (white and black) in the apparatus for 6 days. The conditioned rats were placed and tested in the apparatus without drug administration. The drug dependence was evaluated with the residence time of the rats in the white and black boxes in the test session, as an indicator, in reference to whether the rats preferred the drug-induced sensory effect. […]

Consider `Oc1ccc2c3c1O[C@H]1c4c(c5cc(F)cc6c5n4CCC6)C[C@@]4(O)[C@@H](C2)N(CC2CC2)CC[C@]314` [Compound 1], for which the “recovery from the state of stimulant drug dependence (CPP residence time)” value (7th day after start of administration, significance level 5% or less vs solvent) was “significant recovery” and the “recovery from the state of stimulant drug dependence (CPP residence time)” value (from the 4th day after start of administration) is reported as “apparent recovery”.
